According to PubChem BioAssay (NCI):
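Results reflect a 48-hour exposure of cells in 96-well plates to compound at five concentrations. At the GI50, growth is halved. Definition used: TGI = concentration required for complete inhibition of growth.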

Tests used:
Test in all cases: inhibition of tumour cell growth, NCI panel, 48 h
[1] = tested on: SN12C renal
[2] = tested on: 786-0 renal
[3] = tested on: SNB-19 CNS
[4] = tested on: RXF 393 renal
[5] = tested on: CCRF-CEM leukemia
[6] = tested on: SK-OV-3 ovarian
[7] = tested on: UACC-62 melanoma
[8] = tested on: MCF7 breast
[9] = tested on: SF-268 CNS
[10] = tested on: PC-3 prostate
[11] = tested on: HCT-116 colon
[12] = tested on: CAKI-1 renal
[13] = tested on: MOLT-4 leukemia
[14] = tested on: HCT-15 colon
[15] = tested on: NCI/ADR-RES ovarian
[16] = tested on: EKVX NSCLC
[17] = tested on: KM12 colon
[18] = tested on: DU-145 prostate
[19] = tested on: SR leukemia
[20] = tested on: NCI-H226 lung
[21] = tested on: HOP-62 NSCLC
[22] = tested on: MALME-3M melanoma
[23] = tested on: RPMI-8226 leukemia
[24] = tested on: IGROV1 ovarian
[25] = tested on: SW-620 colon
[26] = tested on: T-47D breast
[27] = tested on: SK-MEL-28 melanoma
[28] = tested on: MDA-MB-435
[29] = tested on: SF-539 CNS
[30] = tested on: OVCAR-8 ovarian
[31] = tested on: BT-549 breast
[32] = tested on: HS 578T breast
[33] = tested on: A549 NSCLC
[34] = tested on: K-562 leukemia
[35] = tested on: UO-31 renal
[36] = tested on: OVCAR-5 ovarian
[37] = tested on: SF-295 CNS
[38] = tested on: TK-10 renal
[39] = tested on: HL-60(TB) leukemia
[40] = tested on: NCI-H522 lung
[41] = tested on: LOX IMVI melanoma
[42] = tested on: SNB-75 CNS
[43] = tested on: MDA-MB-231 breast
[44] = tested on: UACC-257 melanoma
[45] = tested on: COLO 205 colon
[46] = tested on: SK-MEL-2 melanoma
[47] = tested on: OVCAR-4 ovarian
[48] = tested on: ACHN renal
[49] = tested on: NCI-H460 lung
[50] = tested on: HCC-2998 colon
[51] = tested on: U251 CNS
[52] = tested on: A498 renal
[53] = tested on: OVCAR-3 ovarian
[54] = tested on: NCI-H23 lung
[55] = tested on: SK-MEL-5 melanoma
[56] = tested on: HOP-92 NSCLC

SMILES: COc1ccc2c(c1)C(=O)c1c-2n(CCCn2ccnc2)c(=O)c2ccccc12
- GI50 [1]: 692 nM
- TGI [1]: > 100000 nM
- GI50 [2]: 239 nM
- TGI [2]: 1660 nM
- GI50 [3]: 293 nM
- TGI [3]: > 46500 nM
- GI50 [4]: 431 nM
- TGI [4]: 2000 nM
- GI50 [5]: 213 nM
- TGI [5]: 24800 nM
- GI50 [6]: 595 nM
- TGI [6]: 4590 nM
- GI50 [7]: 403 nM
- TGI [7]: 1860 nM
- GI50 [8]: 24.1 nM
- TGI [8]: 1840 nM
- GI50 [9]: 214 nM
- TGI [9]: > 25300 nM
- GI50 [10]: 765 nM
- TGI [10]: > 100000 nM
- GI50 [11]: 235 nM
- TGI [11]: 740 nM
- GI50 [12]: 211 nM
- TGI [12]: 1340 nM
- GI50 [13]: 136 nM
- TGI [13]: > 100000 nM
- GI50 [14]: 1240 nM
- TGI [14]: 7720 nM
- GI50 [15]: 634 nM
- TGI [15]: 5920 nM
- GI50 [16]: 1510 nM
- TGI [16]: 11900 nM
- GI50 [17]: 729 nM
- TGI [17]: 3780 nM
- GI50 [18]: 247 nM
- TGI [18]: 4660 nM
- GI50 [19]: 76.5 nM
- TGI [19]: 7810 nM
- GI50 [20]: 1120 nM
- TGI [20]: 5580 nM
- GI50 [21]: 137 nM
- TGI [21]: 781 nM
- GI50 [22]: 1250 nM
- TGI [22]: 6440 nM
- GI50 [23]: 223 nM
- TGI [23]: 2000 nM
- GI50 [24]: 204 nM
- TGI [24]: 2550 nM
- GI50 [25]: 247 nM
- TGI [25]: 7590 nM
- GI50 [26]: 399 nM
- TGI [26]: 5680 nM
- GI50 [27]: 2080 nM
- TGI [27]: > 57400 nM
- GI50 [28]: 670 nM
- TGI [28]: 3240 nM
- GI50 [29]: 244 nM
- TGI [29]: 906 nM
- GI50 [30]: 602 nM
- TGI [30]: > 69200 nM
- GI50 [31]: 478 nM
- TGI [31]: 3870 nM
- GI50 [32]: 1490 nM
- TGI [32]: 17800 nM
- GI50 [33]: 511 nM
- TGI [33]: 4660 nM
- GI50 [34]: 548 nM
- TGI [34]: > 100000 nM
- GI50 [35]: 86.7 nM
- TGI [35]: 476 nM
- GI50 [36]: 1240 nM
- TGI [36]: 3920 nM
- GI50 [37]: 101 nM
- TGI [37]: 2130 nM
- GI50 [38]: 2090 nM
- TGI [38]: 15400 nM
- GI50 [39]: 1490 nM
- TGI [39]: 18400 nM
- GI50 [40]: 174 nM
- TGI [40]: 5500 nM
- GI50 [41]: 179 nM
- TGI [41]: 835 nM
- GI50 [42]: 843 nM
- TGI [42]: > 22400 nM
- GI50 [43]: 3790 nM
- TGI [43]: > 79100 nM
- GI50 [44]: 1140 nM
- TGI [44]: 10900 nM
- GI50 [45]: 579 nM
- TGI [45]: 14300 nM
- GI50 [46]: 843 nM
- TGI [46]: 8820 nM
- GI50 [47]: 1330 nM
- TGI [47]: > 100000 nM
- GI50 [48]: 144 nM
- TGI [48]: 1040 nM
- GI50 [49]: 128 nM
- TGI [49]: 1460 nM
- GI50 [50]: 720 nM
- TGI [50]: 2910 nM
- GI50 [51]: 126 nM
- TGI [51]: 2600 nM
- GI50 [52]: 471 nM
- TGI [52]: 1760 nM
- GI50 [53]: 901 nM
- GI50 [54]: 284 nM
- TGI [54]: 7860 nM
- GI50 [55]: 154 nM
- TGI [55]: 344 nM
- GI50 [56]: 1030 nM
- TGI [56]: > 23200 nM
